Measurements reported in patent publication US7803801B2, “Aminopyridine compounds having Syk inhibitory activity” (Japan Tobacco, Inc., priority 2005, dated 2010).
Counter-ions that a name gives are not always drawn. Like-named read-outs stand apart in the source and are kept apart here.

Legend:
[1] = biological target: GST-Syk Full Protein (human) (Homo sapiens, UniProt P43405); experiment: Syk kinase inhibition test (HTRF method); type: biochemical
Procedure, shortened: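 Human GST-Syk full-length (6.4 nM) phosphorylated biotin-EDPDYEWPSA-NH2 (250 nM) with 100 μM ATP in HEPES pH 7.0/MgCl2 buffer, 2% DMSO, 30 min at room temperature. EDTA stop, then HTRF detection (streptavidin-XL665, Eu anti-phosphotyrosine) after 1 h; 665/620 ratio read.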

[2] = tested on: cultured human mast cells; experiment: Degranulation inhibition test using cultured human mast cells (IgE cross-linking, β-Hexosaminidase release); type: cell-based; conditions: Mast cell, cultured human mast cells, read-out: human degranulation ave. IC50
Procedure, shortened: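 CD34+ cord-blood cells cultured ≥8 weeks with SCF/IL-6/IL-3; FcεRI primed 5 days with rhIL-4 (1 ng/mL) and hIgE (0.5 μg/mL). Compound (0.1% DMSO) preincubated 10 min at 37 °C, then anti-IgE (final 10 μg/mL) 30 min; released β-hexosaminidase read at 405 nm versus total lysate, IC50 (M).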

[3] = Tables 1-x, compounds A, read-out: sykHTRF ave IC50
[4] = HTRF, 100 μM ATP, 30 min room temperature, average, read-out: sykHTRF ave IC50
[5] = anti-hIgE stimulation, β-Hexosaminidase index, average
[6] = Tables 2-x, thiophene compounds B, read-out: sykHTRK ave IC50
[7] = Tables 2-x, thiophene compounds B

Row | SMILES | IC50 [1, 4] | IC50 [2, 5] | also measured
1 | Cc1ccnc(Nc2cccc(-c3cnc(N4CCN(CC(N)=O)C(=O)C4)s3)n2)c1 [Compound A-465, 2-(4-{5-[6-(4-methylpyridin-2-ylamino)pyridin-2-yl]thiazol-2-yl}-2-oxopiperazin-1-yl)acetamide] |  |  | IC50 [1, 3]: < 100 nM; IC50 ([2]; Tables 1-x, compounds A): 100 to 1000 nM
2 | Cc1ccnc(Nc2cccc(-c3cnc(CN4CCNC(=O)C4)s3)n2)c1 [Compound A-416, 4-{5-[6-(4-methylpyridin-2-ylamino)pyridin-2-yl]thiazol-2-ylmethyl}piperazin-2-one] |  |  | IC50 [1, 3]: < 100 nM; IC50 ([2]; Tables 1-x, compounds A): < 100 nM
3 | CC(=O)N[C@@H](COCc1ccccc1)c1ncc(-c2cccc(Nc3cc(C)ccn3)n2)s1 [Compound A-45] | > 1000 nM | > 1000 nM | 
4 | CCC(=O)c1ccc(-c2cccc(Nc3cc(C)ccn3)n2)s1 [Compound B-48] |  |  | IC50 [1, 6]: 100 to 1000 nM; IC50 [2, 7]: > 1000 nM
5 | Cc1ccnc(Nc2cccc(-c3cnc(C4CCCC(C(=O)N5C[C@@H](O)[C@@H](O)C5)C4)s3)n2)c1 (stereo partly shown) [Compound A-273] | 100 to 1000 nM | > 1000 nM | 
6 | Cc1ccnc(Nc2cccc(-c3cnc(CN4CCC(NS(C)(=O)=O)CC4)s3)n2)c1 [Compound A-236] | 100 to 1000 nM | 100 to 1000 nM | 
7 | Cc1ccnc(Nc2cccc(-c3cnc(C(=O)NCC(C)O)s3)n2)c1 (stereo not shown) [Compound A-66] | 100 to 1000 nM | > 1000 nM | 
8 | CNC(=O)C1CCN(c2ncc(-c3cccc(Nc4cc(C)ccn4)n3)s2)CC1 [Compound A-4, N-methyl-1-{5-[6-(4-methylpyridin-2-ylamino)pyridin-2-yl]thiazol-2-yl}piperidine-4-carboxamide] | < 100 nM | > 1000 nM | 
9 | Cc1ccnc(Nc2cccc(-c3cnc([C@H](C)NC(=O)CO)s3)n2)c1 [Compound A-147, 2-hydroxy-N—((S)-1-{5-[6-(4-methylpyridin-2-ylamino)pyridin-2-yl]thiazol-2-yl}ethyl)acetamide] | < 100 nM | 100 to 1000 nM | 
10 | Cc1ccnc(Nc2cccc(-c3ccc(NC(=O)[C@H](C)O)s3)n2)c1 [Compound B-35] |  |  | IC50 [1, 6]: 100 to 1000 nM; IC50 [2, 7]: 100 to 1000 nM
11 | Cc1ccnc(Nc2cccc(-c3cnc(N(C)CC(N)=O)s3)n2)c1 [Compound A-556, 2-(N-methyl-N-{5-[6-(4-methylpyridin-2-ylamino)pyridin-2-yl]thiazol-2-yl}amino)acetamide] |  |  | IC50 [1, 3]: < 100 nM; IC50 ([2]; Tables 1-x, compounds A): < 100 nM
12 | Cc1ccnc(Nc2cccc(-c3cnc(COC(=O)N4CCOCC4)s3)n2)c1 [Compound A-346] | 100 to 1000 nM | 100 to 1000 nM | 
13 | CCOC(=O)c1nc([C@H](C)NC(C)=O)sc1-c1cccc(Nc2cc(C)ccn2)n1 [Compound A-102] | > 1000 nM | > 1000 nM | 
14 | CC(=O)NC(C)(C)c1ncc(-c2cccc(Nc3cc(C)ccn3)n2)s1 [Compound A-114] | 100 to 1000 nM | > 1000 nM | 
15 | CN[C@@H](C)c1ncc(-c2cccc(Nc3cc(C)ccn3)n2)s1 [Compound A-51] | 100 to 1000 nM | 100 to 1000 nM | 
16 | Cc1ccnc(Nc2cccc(-c3cnc(N(C)C(C)(C)c4ccc(C(=O)O)cc4)s3)n2)c1 [Compound A-616, 4-[1-methyl-1-(N-methyl-N-{5-[6-(4-methylpyridin-2-ylamino)pyridin-2-yl]thiazol-2-yl}amino)ethyl]benzoic acid dihydrochloride] |  |  | IC50 [1, 3]: < 100 nM; IC50 ([2]; Tables 1-x, compounds A): 100 to 1000 nM
17 | Cc1ccnc(Nc2cccc(-c3cnc(N(C)[C@H]4CC[C@@H](C(=O)O)CC4)s3)n2)c1 [Compound A-591, cis-4-(N-methyl-N-{5-[6-(4-methylpyridin-2-ylamino)pyridin-2-yl]thiazol-2-yl}amino)cyclohexanecarboxylic acid] |  |  | IC50 [1, 3]: < 100 nM; IC50 ([2]; Tables 1-x, compounds A): 100 to 1000 nM
18 | Cc1ccnc(Nc2cccc(-c3cnc([C@H]4CC[C@H](C(=O)N5CCC(NS(C)(=O)=O)C5)CC4)s3)n2)c1 (stereo partly drawn) [Compound A-312, N-[1-(trans-4-{5-[6-(4-methylpyridin-2-ylamino)pyridin-2-yl]thiazol-2-yl]cyclohexanecarbonyl)pyrrolidin-3-yl}methanesulfonamide] | < 100 nM | 100 to 1000 nM | 
19 | CC(=O)N[C@@H](C)c1ncc(-c2cccc(Nc3cc(OCc4ccccc4)ccn3)n2)s1 [Compound A-80] | 100 to 1000 nM | 100 to 1000 nM | 
20 | Cc1ccnc(Nc2cccc(-c3cnc(CC4CCC(C(=O)N5CCC(O)CC5)CC4)s3)n2)c1 (stereo not shown) [Compound A-269] | 100 to 1000 nM | 100 to 1000 nM | 
21 | Cc1ccnc(Nc2cccc(-c3cnc(N4CC[C@@H](NS(C)(=O)=O)C4)s3)n2)c1 [Compound A-489, N—((R)-1-{5-[6-(4-methylpyridin-2-ylamino)pyridin-2-yl]thiazol-2-yl}pyrrolidin-3-yl)methanesulfonamide] |  |  | IC50 [1, 3]: < 100 nM; IC50 ([2]; Tables 1-x, compounds A): 100 to 1000 nM
22 | Cc1ccnc(Nc2cccc(-c3cnc([C@H]4CC[C@H](c5noc(=O)[nH]5)CC4)s3)n2)c1 [Compound A-325, 3-(trans-4-{5-[6-(4-methylpyridin-2-ylamino)pyridin-2-yl]thiazol-2-yl}cyclohexyl)-4H-[1,2,4]oxazol-5-one] | < 100 nM | 100 to 1000 nM | 

Row | SMILES | IC50 [1, 4] | IC50 [2, 5] | also measured
23 | CC(=O)c1ccc(-c2cccc(Nc3cc(C)ccn3)n2)s1 [Compound B-1, 1-{5-[6-(4-methylpyridin-2-ylamino)pyridin-2-yl]thiophen-2-yl}ethanone] |  |  | IC50 [1, 6]: < 100 nM; IC50 [2, 7]: > 1000 nM
24 | Cc1ccnc(Nc2cccc(-c3ccc(C(=O)NCCC(=O)O)s3)n2)c1 [Compound B-98] |  |  | IC50 [1, 6]: 100 to 1000 nM; IC50 [2, 7]: > 1000 nM
25 | Cc1ccnc(Nc2cccc(-c3cnc(N(C)CC(=O)N[C@H](C(=O)O)C(C)C)s3)n2)c1 [Compound A-568, (S)-3-methyl-2-[2-(N-methyl-N-{5-[6-(4-methylpyridin-2-ylamino)pyridin-2-yl]thiazol-2-yl}amino)acetylamino]butyric acid dihydrochloride] |  |  | IC50 [1, 3]: < 100 nM; IC50 ([2]; Tables 1-x, compounds A): > 1000 nM
26 | OCCc1ccnc(Nc2cccc(-c3cnc(N4CC[C@@H](O)C4)s3)n2)c1 [Compound A-577, (R)-1-(5-{6-[4-(2-hydroxyethyl)pyridin-2-ylamino]pyridin-2-yl}thiazol-2-yl)pyrrolidin-3-ol dihydrochloride] |  |  | IC50 [1, 3]: < 100 nM; IC50 ([2]; Tables 1-x, compounds A): 100 to 1000 nM
27 | Cc1ccnc(Nc2cccc(-c3cnc([C@H]4CC[C@H](CN)CC4)s3)n2)c1 [Compound A-219, trans-4-{5-[6-(4-methylpyridin-2-ylamino)pyridin-2-yl]thiazol-2-yl}cyclohexylmethylamine] | < 100 nM | > 1000 nM | 
28 | Cc1ccnc(Nc2cccc(-c3cnc(CCCCCO)s3)n2)c1 [Compound A-70, 5-{5-[6-(4-methylpyridin-2-ylamino)pyridin-2-yl]thiazol-2-yl}pentan-1-ol] | < 100 nM | 100 to 1000 nM | 
29 | Cc1ccnc(Nc2cccc(-c3cnc(C4CCN(C(=O)N5CCC(O)CC5)CC4)s3)n2)c1 [Compound A-251] | 100 to 1000 nM | 100 to 1000 nM | 
30 | Cc1ccnc(Nc2cccc(-c3cnc([C@@H](N)Cc4ccccc4)s3)n2)c1 [Compound A-40] | 100 to 1000 nM | > 1000 nM | 
31 | CO/N=C(\C)c1ccc(-c2cccc(Nc3cc(N(C)C)ncn3)n2)s1 [Compound B-32] |  |  | IC50 [1, 6]: > 1000 nM; IC50 [2, 7]: > 1000 nM
32 | CC(=O)N(C)[C@@H](Cc1ccc(O)cc1)c1ncc(-c2cccc(Nc3cc(C)ccn3)n2)s1 [Compound A-376] |  |  | IC50 [1, 3]: 100 to 1000 nM; IC50 ([2]; Tables 1-x, compounds A): 100 to 1000 nM
33 | Cc1ccnc(Nc2cccc(-c3cnc(COCC(=O)N4CCC(O)CC4)s3)n2)c1 [Compound A-369] | 100 to 1000 nM | > 1000 nM | 
34 | Cc1ccnc(Nc2cccc(-c3cnc(CN4CCN(c5ccc(O)cc5)CC4)s3)n2)c1 [Compound A-382] |  |  | IC50 [1, 3]: 100 to 1000 nM; IC50 ([2]; Tables 1-x, compounds A): 100 to 1000 nM
35 | CC(=O)Oc1ccc(C(=O)N2CCC(c3ncc(-c4cccc(Nc5cc(C)ccn5)n4)s3)CC2)cc1 [Compound A-377] |  |  | IC50 [1, 3]: 100 to 1000 nM; IC50 ([2]; Tables 1-x, compounds A): 100 to 1000 nM
36 | CCc1ccc(-c2cccc(Nc3cc(C)ccn3)n2)s1 [Compound B-91] |  |  | IC50 [1, 6]: 100 to 1000 nM; IC50 [2, 7]: > 1000 nM
37 | Cc1ccnc(Nc2cccc(-c3cnc(CNCCC(=O)O)s3)n2)c1 [Compound A-165] | 100 to 1000 nM | > 1000 nM | 
38 | Cc1ccnc(Nc2cccc(-c3ccc(C(=O)NC(C)(C)CC(=O)O)s3)n2)c1 [Compound B-101] |  |  | IC50 [1, 6]: 100 to 1000 nM; IC50 [2, 7]: > 1000 nM
39 | Cc1ccnc(Nc2cccc(-c3cnc(N4CCC(C(N)=O)CC4)s3)n2)c1 [Compound A-3, 1-{5-[6-(4-methylpyridin-2-ylamino)pyridin-2-yl]thiazol-2-yl}piperidine-4-carboxamide] | < 100 nM | 100 to 1000 nM | 
40 | CC(=O)N[C@@H](C)c1ncc(-c2cccc(Nc3cc(CC(=O)O)ccn3)n2)s1 [Compound A-331] | > 1000 nM | > 1000 nM | 
41 | Cc1ccnc(Nc2cccc(-c3cnc([C@H](C)NC(C)C)s3)n2)c1 [Compound A-65] | 100 to 1000 nM | 100 to 1000 nM | 
42 | COc1ccnc(Nc2cccc(-c3cnc([C@H](C)NC(C)=O)s3)n2)c1 [Compound A-77] | 100 to 1000 nM | 100 to 1000 nM | 
43 | CC(=O)N[C@H]1CC[C@H](c2ncc(-c3cccc(Nc4cc(C)ccn4)n3)s2)CC1 [Compound A-202, N-(trans-4-{5-[6-(4-methylpyridin-2-ylamino)pyridin-2-yl]thiazol-2-yl}cyclohexyl)acetamide] | < 100 nM | > 1000 nM | 
44 | Cc1ccnc(Nc2cccc(-c3ccc(C(=O)NCCO)s3)n2)c1 [Compound B-24] |  |  | IC50 [1, 6]: 100 to 1000 nM; IC50 [2, 7]: 100 to 1000 nM
